Measured values published in patent US9012482B2, “Drug containing benzophenone derivative or its salt” (Toyama Chemical Co., Ltd., priority 2007, dated 2015).

Columns and labels:
Type in all cases: in vivo, mouse (DBA/1 J)
RANKL mRNA = RANKL mRNA expression in hind paws of mice with type II collagen-induced arthritis (real-time PCR)
Procedure: Male DBA/1 J mice at 8-week old (Charles River Laboratories Japan, Inc.) were used. Bovine type II collagen (KOKEN CO., LTD.) dissolved at 2 mg/mL in 0.1 mol/L acetic acid was mixed and emulsified with an equal volume of Freund's complete adjuvant (Difco Laboratories, Inc.), and then 0.2 mL of the emulsion was intradermally injected at the tail head of each mouse. The same treatment was carried out 21 days after the first immunization so that type II collagen-induced arthritis was induced in mice. T-5224 was dissolved in the 2-fold molar amount of sodium hydroxide solution, and then water and polyvinylpyrrolidone (PVP) at 3-fold weight of T-5224 were added to yield 3 mg/mL of T-5224-dosing solution. T-5224 at 30 mg/kg was orally administered once daily from 21 to 34 days after the first immunization. PVP solution was administered to the mice in Control group.
On the next day of final administration, the hind paws were collected. After the excision of claws and skin, they were immersed in RNA-stabilizing agent (RNAlater, Ambion, Inc.) and kept in a refrigerator overnight. Then RNA-stabilizing agent was wiped up, and the hind paws were cryopreserved and crushed by pressing under cooling with the liquid nitrogen. […]
(§1) RT product (100 ng, equivalent amount to RNA) was mixed with 25 μL of quantitative PCR reagent (qPCR Mastermix, Eurogentec S.A.), 2.5 μL of probe/primer solution (TaqMan gene expression assays tumor necrosis factor (ligand) superfamily member 11 Mus musculus, Applied Biosystems) and RNase-free water (Takara Inc.) in total volume of 50 μL, and then PCR reaction (hold at 50° C. for 2 min, hold at 95° C. for 10 min, 40 cycles at 95° C. for 15 sec and at 60° C. for 1 min) was carried out using real-time PCR system (ABI PRISM 7700 sequence detection system, Applied Biosystems) to measure RANKL mRNA. […] The levels of RANKL mRNA and OPG mRNA were expressed as the normalized ratio to Hprt1 mRNA amount.

OPG mRNA = OPG mRNA expression in hind paws of mice with type II collagen-induced arthritis (real-time PCR); conditions: 30 mg/kg orally once daily
Procedure: Male DBA/1 J mice at 8-week old (Charles River Laboratories Japan, Inc.) were used. Bovine type II collagen (KOKEN CO., LTD.) dissolved at 2 mg/mL in 0.1 mol/L acetic acid was mixed and emulsified with an equal volume of Freund's complete adjuvant (Difco Laboratories, Inc.), and then 0.2 mL of the emulsion was intradermally injected at the tail head of each mouse. The same treatment was carried out 21 days after the first immunization so that type II collagen-induced arthritis was induced in mice. […]
as §1

[1] = system: femora of mice with type II collagen-induced arthritis; test: Osteoporosis in femur of mice with type II collagen-induced arthritis: bone density as CT value (μCT)
Procedure: The induction of mouse type II collagen-induced arthritis and the preparation of T-5224-dosing solution (1 mg/mL) were carried out by the same procedure in Example 1. T-5224 at 10 mg/kg was orally administered once daily from 21 to 49 days after the first immunization. PVP solution was administered to the mice in Control group.
The femora isolated on the next day of final administration were fixed with formalin, and then scanned using μCT scanner system (MCT-100CB, Hitachi, Ltd.) (X-ray tube voltage: 90.0 kV, X-ray tube current: 100 iris: 3630, magnification: ×5, resolution: 30 μm). Bone density was evaluated as CT value using 3D CT image (“img” format) assembled by μCT scanner system and bone morphometry software (TRI-3D/BON, Ratoc System Engineering Co., Ltd.) according to the manufacturer's protocol. The evaluation site was set on a metaphyseal slice with 0.35 mm thickness at a point 3% of the length of the femur from the distal growth plate, according to the report of Jochems C. et al. [Arthritis Research and Therapy, 2005, Vol. 7, page R837-R843].

O=C(O)CCc1cc(C(=O)c2ccc(OC3CCCC3)cc2O)ccc1OCc1ccc2c(O)noc2c1 [T-5224]
inhibition of the increase of RANKL mRNA level (RANKL mRNA; 30 mg/kg orally once daily, days 21 to 34, hind paws): 84% | regulatory effect on expression of RANKL/OPG (in words) (RANKL mRNA; hind paws of mice with type II collagen-induced arthritis, 30 mg/kg orally): controlling the expression of RANKL/OPG to normal level | RANKL mRNA level (normalized ratio to Hprt1 mRNA amount) (RANKL mRNA; hind paws, collagen-induced arthritis mice, 30 mg/kg orally once daily, days 21 to 34 after first immunization, Normal 0.096, Control 0.927): 0.224 | inhibition of the decrease of OPG mRNA level (OPG mRNA; days 21 to 34): 68% | OPG mRNA level (normalized ratio to Hprt1 mRNA amount) (OPG mRNA; collagen-induced arthritis mice, days 21 to 34 after first immunization, Normal 0.375, Control 0.156): 0.306 | inhibition of the reduction of CT value ([1]; 10 mg/kg orally once daily, days 21 to 49, femur): 49% | CT Value (bone density) ([1]; femur metaphyseal slice, 10 mg/kg orally once daily, days 21 to 49 after first immunization, Normal 761, Control 657): 708 | effect on development of osteoporosis in femora (in words) ([1]; non-arthritic region of mice with type II collagen-induced arthritis, 10 mg/kg orally): inhibited the development of osteoporosis in femora
